The values below come from article PMC8074465, “Synthesis of oxadiazole-2-oxide derivatives as potential drug candidates for schistosomiasis targeting SjTGR” (Parasites & Vectors, 2021).

Each structure is given as a SMILES string.

One assay addresses T1, rSjTGR-Sec (Schistosoma japonicum, UniProt B5THG7).
T1 sequence (B5THG7 1-596): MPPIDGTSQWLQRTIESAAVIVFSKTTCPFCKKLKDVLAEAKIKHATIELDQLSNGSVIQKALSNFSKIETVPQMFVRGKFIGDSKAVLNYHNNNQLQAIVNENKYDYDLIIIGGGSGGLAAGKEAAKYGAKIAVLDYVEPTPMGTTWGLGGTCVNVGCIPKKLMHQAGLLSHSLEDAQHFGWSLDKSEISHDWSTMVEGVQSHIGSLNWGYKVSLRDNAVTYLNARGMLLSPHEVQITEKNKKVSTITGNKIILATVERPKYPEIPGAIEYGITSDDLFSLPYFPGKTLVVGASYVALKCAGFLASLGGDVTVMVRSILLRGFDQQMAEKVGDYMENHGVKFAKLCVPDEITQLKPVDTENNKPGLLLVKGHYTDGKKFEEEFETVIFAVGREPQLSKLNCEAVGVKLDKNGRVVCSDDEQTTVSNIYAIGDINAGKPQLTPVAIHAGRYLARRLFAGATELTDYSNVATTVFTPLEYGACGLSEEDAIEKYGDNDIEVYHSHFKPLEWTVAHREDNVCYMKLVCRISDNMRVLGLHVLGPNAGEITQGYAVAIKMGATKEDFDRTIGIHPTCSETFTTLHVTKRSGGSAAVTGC
Kind of assay: Inhibition of TrxR activity of rSjTGR-Sec (DTNB reduction, absorbance 412 nm). The assay is classed as biochemical. The note with it: DTNB, pH 7.0, 25 °C, triplicate, >50 μM = flat response within range tested, read-out: IC50 of rSjTGR-Sec. As for the experimental part: The rSjTGR-Sec was expressed and harvested as described previously. […] The rSjTGR-Sec was purified by His Mag™ Agarose beads according to manufacturer’s instructions. The concentration of purified rSjTGR-Sec was determined using a Bradford assay kit (Sangon, China), and the protein was identified by sodium dodecyl sulfate polyacrylamide gel electrophoresis (SDS-PAGE) and stored at 4 °C [20].
The novel furoxan derivatives in this work were dissolved in DMSO with a storage solution concentration of 64 millimoles per liter. The analysis of TrxR activity of SWAP containing wtSjTGR and rSjTGR-Sec was performed based on methods described previously. Analysis of the inhibitory activity of the compounds against the TrxR activity of SWAP containing wtSjTGR and rSjTGR-Sec described in this paper was also based on a previously described method. The reaction was performed in 0.1 M potassium phosphate buffer (pH 7.0) containing 10 mM EDTA, 100 µM nicotinamide adenine dinucleotide phosphate (NADPH), 0.2 µg supernatant of SWAP containing wtSjTGR or 0.6 µg rSjTGR-Sec, and the studied compounds with different concentrations at 25 °C in a final volume of 200 μL, and was initiated by adding 3 mM DTNB. […] All assays were done in triplicate.
Broadly, the IC50 is the concentration needed to halve the response being measured. As for `O=C(OCc1c(-c2cccnc2)no[n+]1[O-])c1ccc(F)cc1` [7bg, 3-(((4-fluorobenzoyl)oxy)methyl)-4-(pyridine-3-yl)-1,2,5-oxadiazole 2-oxide], the IC50 is above 50 µM.

`O=C(OCc1c(-c2cccnc2)no[n+]1[O-])c1c(F)c(F)c(F)c(F)c1F` [7bh, 3-(((perfluorobenzoyl)oxy)methyl)-4-(pyridine-3-yl)-1,2,5-oxadiazole 2-oxide]: the IC50 is above 50 µM.

`O=C(OCc1c(-c2cccnc2)no[n+]1[O-])c1cc(C(F)(F)F)cc(C(F)(F)F)c1` [7bi, 3-(((3,5-bis(trifluoromethyl)benzoyl)oxy)methyl)-4-(pyridin-3-yl)-1,2,5-oxadiazole 2-oxide]: the IC50 is above 50 µM.

Regarding `C=CC(=O)OCc1c(-c2cccnc2)no[n+]1[O-]` [7bj, 3-((acryloyloxy)methyl)-4-(pyridin-3-yl)-1,2,5-oxadiazole 2-oxide], the IC50 is above 50 µM.

With `O=C(OCc1c(-c2cccnc2)no[n+]1[O-])c1cccs1` [7bk, 4-(pyridin-3-yl)-3-(((thiophene-2-carbonyl)oxy)methyl) -1,2,5-oxadiazole 2-oxide], the IC50 was above 50 µM.

As to `COc1ccc(-c2no[n+]([O-])c2COC(C)=O)cn1` [7ca, 3-(acetoxymethyl)-4-(6-methoxypyridin-3-yl)-1,2,5-oxadiazole 2-oxide], the IC50 is above 50 µM.

On to `COc1ccc(-c2no[n+]([O-])c2COC(=O)c2ccccc2)cn1` [7cf, 3-((benzoyloxy)methyl)-4-(6-methoxypyridin-3-yl)-1,2,5-oxadiazole 2-oxide], for which the IC50 is above 50 µM.

Turning to `CC(=O)OCc1c(-c2ccc(C(F)(F)F)nc2)no[n+]1[O-]` [7da, 3-(acetoxymethyl)-4-(6-(trifluoromethyl)pyridin-3-yl)-1,2,5-oxadiazole 2-oxide], the IC50 is above 50 µM.

Consider `O=C(OCc1c(-c2ccc(C(F)(F)F)nc2)no[n+]1[O-])c1ccccc1` [7df, 3-((benzoyloxy)methyl)-4-(6-(trifluoromethyl)pyridin-3-yl)-1,2,5-oxadiazole 2-oxide], for which the IC50 was above 50 µM.

Turning to `[O-][n+]1onc(-c2ccncc2)c1CNc1ccccc1` [9aa, 3-((phenylamino)methyl)-4-(pyridin-4-yl)-1,2,5-oxad-iazole 2-oxide], the IC50 was above 50 µM.

`[O-][n+]1onc(-c2ccncc2)c1CNc1ccc(OC(F)(F)F)cc1` [9ab, 4-(pyridin-4-yl)-3-(((4-(trifluoromethoxy)phenyl)amino)methyl)-1,2,5-oxadiazole 2-oxide]: the IC50 was found to be 1.52 ± 0.2 µM.

Regarding `[O-][n+]1onc(-c2ccncc2)c1CN1CCN(c2ccc(F)cc2)CC1` [9ac, 3-((4-(4-fluorophenyl)piperazin-1-yl)methyl)-4-(pyridin-4-yl)-1,2,5-oxadiazole 2-oxide], the IC50 is above 50 µM.

As for `[O-][n+]1onc(-c2ccncc2)c1CN1CCN(c2cccc(C(F)(F)F)c2)CC1` [9ad, 4-(pyridin-4-yl)-3-((4-(3-(trifluoromethyl)phenyl)piperazin-1-yl)methyl)-1,2,5-oxadiazole 2-oxide], the IC50 was above 50 µM.

In the case of `[O-][n+]1onc(-c2cccnc2)c1CNc1ccccc1` [9ba, 3-((phenylamino)methyl)-4-(pyridin-3-yl)-1,2,5-oxadiazole 2-oxide], the IC50 is above 50 µM.

As for `[O-][n+]1onc(-c2cccnc2)c1CNc1ccc(OC(F)(F)F)cc1` [9bb, 4-(pyridin-3-yl)-3-(((4-(trifluoromethoxy)phenyl)amino)methyl)-1,2,5-oxadiazole 2-oxide], the IC50 was above 50 µM.

`[O-][n+]1onc(-c2cccnc2)c1CN1CCN(c2ccc(F)cc2)CC1` [9bc, 3-((4-(4-fluorophenyl)piperazin-1-yl)methyl)-4-(pyridin-3-yl)-1,2,5-oxadiazole 2-oxide]: the IC50 is above 50 µM.

Regarding `COc1ccc(-c2no[n+]([O-])c2CNc2ccccc2)cn1` [9ca, 4-(6-methoxypyridin-3-yl)-3-((phenylamino)methyl)-1,2,5-oxadiazole 2-oxide], the IC50 was above 50 µM.

On to `[O-][n+]1onc(-c2ccc(C(F)(F)F)nc2)c1CNc1ccccc1` [9da, 3-((phenylamino)methyl)-4-(6-(trifluoromethyl)pyridin-3-yl)-1,2,5-oxadiazole 2-oxide], for which the IC50 was 3.73 ± 1.67 µM.

Staying with this assay, now noted: IC50 of rSjTGR-Sec, DTNB, pH 7.0, 25 °C, triplicate, >50 μM = flat response within range tested.
Consider `Cc1ccc(S(=O)(=O)N(Cc2c(-c3cccnc3)no[n+]2[O-])O[Si](C)(C)C(C)(C)C)cc1` [9be, 3-(((N-((tert-butyldimethylsilyl)oxy)-4-methylphenyl)sulfonamido)methyl)-4-(pyridin-3-yl)-1,2,5-oxadiazole 2-oxide], for which the IC50 came out at 0.22 ± 0.01 µM.

Compound `N#Cc1c(-c2ccccc2)no[n+]1[O-]` [Furoxan, reference compound] yielded an IC50 of 5.87 ± 1.37 µM.

Staying with this assay, now noted: furoxan as positive control.
Turning to `COc1ccc(-c2no[n+]([O-])c2COC(=O)c2ccccc2)cn1` [7cf, 3-((benzoyloxy)methyl)-4-(6-methoxypyridin-3-yl)-1,2,5-oxadiazole 2-oxide], the “inhibitory effect on rSjTGR-Sec (in words)” value is recorded as “did not show an inhibitory effect”.
